Data published in patent publication US20120232107A1, “NON-PEPTIDE ANTAGONISTS OF GASTRIN RELEASING PEPTIDE” (The Government of the United States of America as …, priority 2003, published 2012).
“Also recorded” adds a separate entry of the source.

What was measured:
[1] = tested on: cell line A345; assay: Clonogenic assay in soft agar; format: cell-based; conditions: A345, 3 weeks
Procedure: B. Cells from the cell line […] were grown in substrate-independent conditions (clonogenic assay) as previously published (Iwai et al., supra).

[2] = tested on: GRP-induced angiogenesis; assay: Directed in vivo angiogenesis assay (DIVAA); parameters: species or system mice; conditions: 1 nM GRP in angioreactors, nude mice, 11 days
Procedure: Analysis and quantitation of angiogenesis was done using DIVAA as previously described (Martinez et al. (2002) J Natl Cancer Inst 94, 1226-37). Briefly, 10 mm long surgical-grade silicone tubes with only one end open (angioreactors) were filled with 20 μl of matrigel alone or mixed with GRP and the small molecules at the indicated concentrations. After the matrigel solidified, the angioreactors were implanted into the dorsal flanks of athymic nude mice (NCI colony). After 11 days, the mice were injected iv with 25 mg/ml FITC-dextran (100 μl/mouse, Sigma) 20 min before removing angioreactors. Quantitation of neovascularization in the angioreactors was determined as the amount of fluorescence trapped in the implants and was measured in a HP Spectrophotometer (Perkin Elmer).

[3] = tested on: Bovine retinal microvascular endothelial cells; assay: Cord formation assay in Matrigel; format: cell-based
Procedure: Formation of tube-like structures was performed as described in Kubota et al. (1988) J. Cell Biol. 107, 1589-1598; Nam et al. (2003) Phytother. Res. 17, 107-111; and Macpherson et al. (2003) Mol Cancer Ther 2, 845-54. Briefly, a thin layer of Matrigel (Collaborative Biomedical Products, Bedford, Mass.) was allowed to polymerize at the bottom of 24-well plates. […] After an overnight incubation at 37° C., the tubular structures were photographed (3 pictures per well at 10×) and the number of knots per photographic field were counted as a measure of lattice complexity.

[4] = target: T1, GRP (Homo sapiens, UniProt P07492); assay: IP3 analysis for GRP in H-1299 cells; format: cell-based; conditions: peptide GRP; IP3 or Ca2+ levels induced by GRP in H1299 cells
T1 construct: GRP is a 27 amino acid peptide; purchased Peninsula (S. Carlos, Calif.); host or cells: synthetic peptide
T1 sequence (P07492 24-50 limits assumed): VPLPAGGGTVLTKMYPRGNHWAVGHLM
Procedure: This cell line was obtained from ATCC and cultured as the other cell lines. The signal transduction pathway for GRP includes elevation of intracellular levels of IP3 and Ca^2+ and these were investigated as previously shown (Ryan et al. (1998) J. Biol. Chem., 273, 13613-13624). Briefly, to quantify IP3, contents cells were subcultured into 24-well plates (5×10^4 cells/well). After a 24 h incubation period at 37° C., the cells were incubated with 3 μCi/ml myo-[^3H]inositol in growth medium supplemented with 2% FBS for an additional 24 h. Incubation volumes were 500 μl of assay buffer/well containing 135 mM sodium chloride, 20 mM HEPES (pH 7.4), 2 mM calcium chloride, 1.2 mM magnesium sulfate, 1 mM EGTA, 20 mM lithium chloride, 11.1 mM glucose, and 0.05% BSA (v/v) with or without any of the molecules studied at 37° C. for 30 min. Experiments were terminated with 1 ml of ice-cold hydrochloric acid/methanol (0.1%, v/v). [^3H]IP3 was eluted off Dowex AG-1-X8 anion exchange columns with 2 ml of 1 mM ammonium formate and 100 mM formic acid. Each of the eluates was collected and mixed with 10 ml of scintillation mixture (BioSafe, Research Products International Corp, Mount Prospect, Ill.), and the radioactivity was measured in a LS 3801 β counter (Beckman, Somerset, N.J.).

[5] = tested on: H1299 xenograft; assay: In vivo tumor growth (xenograft experiment); parameters: species or system mice
Procedure: Thirty female athymic nude mice from the NIH colony in Frederick (MD) were injected subcutaneously with 1.0×10^7 H1299 cells/mouse. Two weeks later, all the mice had developed palpable tumors under the skin and at this time they were randomly divided in three groups. Three times a week, each individual tumor was measured (length, height, thickness) and every mouse received an intratumoral injection, according to their group. Group 1 (control) received 100 μl PBS (negative control); group 2 received 100 μl 0.5 μM compound XV′ (77427) in PBS; and group 3 received 100 μl 5 μM compound XV′ (77427) in PBS. When the tumor burden became unbearable (larger than 2000 mm^3), the mice were sacrificed.

[6] = tested on: lung cancer cell line H1299; assay: Proliferation assay (growth inhibition MTT); format: cell-based; conditions: H1299, serum-free medium, 5 days
Procedure: A. Tumor cells (from a lung cancer cell line, H1299) were seeded in 96-well plates at a density of 2.0×10^5 cells per well in serum-free medium containing different concentrations of the test agent, the small molecule inhibitor compound XV′ (77427). After 5 days in culture, the number of viable cells per well was estimated by the growth inhibition MTT assay (as reported in Iwai et al. (1999) Lung Cancer 23, 209-22).

**Q.** How did the “number of colonies in soft agar” value [1] turn out when `Nc1nc(Cl)cc(NCCO)n1` [compound 77427] was run?
**A.** Its value is “reduces the number of colonies”.

**Q.** And the “inhibition of GRP-induced angiogenesis” value [2]?
**A.** Its value is “dose-dependent inhibition”.

**Q.** What about the “inhibition of GRP-induced angiogenesis” value ([2]; listed as XV′) of the same compound?
**A.** The value was “inhibited”.

**Q.** And the “number of knots per photographic field” value ([3]; 5 nM GRP and 0.5 μM compound added together)?
**A.** The value was 12±4.

**Q.** What about the “complexity of the tubular lattice” value ([3]; 5 nM GRP plus 0.5 μM compound) of the same compound?
**A.** Its value is “marked decrease; also recorded: reduces network complexity; also recorded: greatly reduced”.

**Q.** What about the “Biological activity (cord formation)” value ([3]; GRP-induced cord formation) of the same compound?
**A.** Its value is “Inhibits cord”.

**Q.** What about the “Action on second messengers” value [4] of the same compound?
**A.** Its value is “Antagonists”.

**Q.** What about the tumor size ([5]; after a single intratumoral injection) of the same compound?
**A.** Its tumor size is “significantly reduced”.

**Q.** What about the tumor size ([5]; after the second intratumoral injection) of the same compound?
**A.** Its tumor size is “all but disappeared”.

**Q.** What about the “growth inhibitory action on lung cancer cells (MTT)” value [6] of the same compound?
**A.** Its value is “modest dose-dependent growth inhibitory action”.
